Where two headings read alike, the source gives them in different places.
Experiments:
[1] = molecular target: T1, R40Q/K41N/S44L saFabI variant (Staphylococcus aureus, UniProt Q6GI75, K41N/R40Q/S44L); assay: [32P]-NAD+ direct dissociation method, saFabI; assay type: binding; conditions: saFabI system
T1 sequence (Q6GI75 1-256 R40Q/K41N/S44L): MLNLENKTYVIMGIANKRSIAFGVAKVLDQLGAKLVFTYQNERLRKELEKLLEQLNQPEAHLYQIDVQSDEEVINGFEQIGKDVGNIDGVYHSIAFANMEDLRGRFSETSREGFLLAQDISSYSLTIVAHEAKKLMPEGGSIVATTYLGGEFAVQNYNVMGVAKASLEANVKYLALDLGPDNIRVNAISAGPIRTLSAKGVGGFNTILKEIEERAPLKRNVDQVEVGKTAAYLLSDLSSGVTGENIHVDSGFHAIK

saFabI = assay: Progress curve analysis, saFabI; assay type: biochemical, Staphylococcus aureus; conditions: for residence time tR: progress curve analysis, saFabI system, 20 °C
[2] = molecular target: T2, M. tuberculosis FabI (InhA) (Mycobacterium tuberculosis, UniProt P9WGR1)
[3] = molecular target: T2, M. tuberculosis FabI (InhA); conditions: progress curve analysis; bound to InhA; 20 °C
[4] = tested on: hepatitis C virus NS3 protease; conditions: jump dilution; cited from earlier work

Structure (SMILES) | residence time tR [1] | residence time tR (saFabI) | also measured
CCCCCCc1ccc(Oc2ccccc2C#N)c(O)c1 [PT119] | 833.3 min | 120.3 min | difference in koff (saFabI; progress curve analysis vs direct dissociation method, inhibition of saFabI): 8 fold
CCCCCCc1ccc(Oc2ccccc2Cl)c(O)c1 [PT91] |  |  | residence time tR [2]: 148.4 ± 13.4 min; residence time tR [3]: 102.1 ± 11.4 min
CC(C)(C)OC(=O)N[C@H]1CCCCC/C=C\[C@@H]2C[C@@]2(C(=O)NS(=O)(=O)C2CC2)NC(=O)[C@@H]2C[C@@H](OC(=O)N3Cc4cccc(F)c4C3)CN2C1=O [ITMN-191] |  |  | recovery of enzyme activity [4]: partial recovery of enzyme activity
CCCCCCc1ccc(Oc2ccccc2)c(O)c1 [PT04] | 461.5 min | 97 min | 

— publication PMC4454744 (Analytical biochemistry, 2015)
